Laboratory results as given in ChEMBL document CHEMBL1201861, “Genomics of Drug Sensitity in Cancer screening data, Wellcome Trust Sanger Institute”.

Legend:
[1] = system: COLO-824; experiment: cells; type: functional, cell-based, Homo sapiens; conditions: Homo sapiens, COLO-824
Description: SANGER: Inhibition of human COLO-824 cell growth in a cell viability assay.

[2] = system: CP66-MEL; experiment: cells; type: functional, cell-based, Homo sapiens; conditions: Homo sapiens, CP66-MEL;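 note: growth inhibition of CP66-MEL cells determined in a cell viability assay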
Description: SANGER: Inhibition of human CP66-MEL cell growth in a cell viability assay.

[3] = system: Ca-Ski; experiment: cells; type: functional, cell-based, Homo sapiens; conditions: Homo sapiens, Ca-Ski;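 note: cell viability assay measuring inhibition of Ca-Ski cell growth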
Description: SANGER: Inhibition of human Ca-Ski cell growth in a cell viability assay.

[4] = system: DMS-79; experiment: cells; type: functional, cell-based, Homo sapiens; conditions: Homo sapiens, DMS-79
Description: SANGER: Inhibition of human DMS-79 cell growth in a cell viability assay.

[5] = system: DU-4475; experiment: cells; type: functional, cell-based, Homo sapiens; conditions: Homo sapiens, DU-4475
Description: SANGER: Inhibition of human DU-4475 cell growth in a cell viability assay.

[6] = system: EFO-27; experiment: cells; type: functional, cell-based, Homo sapiens; conditions: Homo sapiens, EFO-27;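 note: growth inhibition of EFO-27 cells, read out with a cell viability assay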
Description: SANGER: Inhibition of human EFO-27 cell growth in a cell viability assay.

[7] = system: ES1; experiment: cells; type: functional, cell-based, Homo sapiens; conditions: Homo sapiens, ES1;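 note: growth inhibition of ES1 cells, read out with a cell viability assay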
Description: SANGER: Inhibition of human ES1 cell growth in a cell viability assay.

[8] = system: ES3; experiment: cells; type: functional, cell-based, Homo sapiens; conditions: Homo sapiens, ES3;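 note: growth inhibition of ES3 cells, read out with a cell viability assay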
Description: SANGER: Inhibition of human ES3 cell growth in a cell viability assay.

[9] = system: G-401; experiment: cells; type: functional, cell-based, Homo sapiens; conditions: Homo sapiens, G-401
Description: SANGER: Inhibition of human G-401 cell growth in a cell viability assay.

[10] = system: HCC2218; experiment: cells; type: functional, cell-based, Homo sapiens; conditions: Homo sapiens, HCC2218;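 note: cell viability assay read-out, with IC50 given as the concentration that inhibits growth of the cell line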
Description: SANGER: Inhibition of human HCC2218 cell growth in a cell viability assay.

[11] = system: HCC38; experiment: cells; type: functional, cell-based, Homo sapiens; conditions: Homo sapiens, HCC38;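 note: cell viability assay on the human HCC38 cell line, with IC50 marking the concentration that inhibits cell growth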
Description: SANGER: Inhibition of human HCC38 cell growth in a cell viability assay.

[12] = system: HL-60; experiment: cells; type: functional, cell-based, Homo sapiens; conditions: Homo sapiens, HL-60;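 note: growth inhibition of human HL-60 cells, read out with a cell viability assay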
Description: SANGER: Inhibition of human HL-60 cell growth in a cell viability assay.

[13] = system: HOS; experiment: cells; type: functional, cell-based, Homo sapiens; conditions: Homo sapiens, HOS
Description: SANGER: Inhibition of human HOS cell growth in a cell viability assay.

[14] = system: JEG-3; experiment: cells; type: functional, cell-based, Homo sapiens; conditions: Homo sapiens, JEG-3;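 note: growth inhibition of human JEG-3 cells, read out with a cell viability assay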
Description: SANGER: Inhibition of human JEG-3 cell growth in a cell viability assay.

[15] = system: KYSE-180; experiment: cells; type: functional, cell-based, Homo sapiens; conditions: Homo sapiens, KYSE-180;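 note: growth inhibition of KYSE-180 cells, read out with a cell viability assay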
Description: SANGER: Inhibition of human KYSE-180 cell growth in a cell viability assay.

[16] = system: LAMA-84; experiment: cells; type: functional, cell-based, Homo sapiens; conditions: Homo sapiens, LAMA-84;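 note: growth inhibition of LAMA-84 cells, read out with a cell viability assay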
Description: SANGER: Inhibition of human LAMA-84 cell growth in a cell viability assay.

[17] = system: LB996-RCC; experiment: cells; type: functional, cell-based, Homo sapiens; conditions: Homo sapiens, LB996-RCC
Description: SANGER: Inhibition of human LB996-RCC cell growth in a cell viability assay.

[18] = system: LU-165; experiment: cells; type: functional, cell-based, Homo sapiens; conditions: Homo sapiens, LU-165
Description: SANGER: Inhibition of human LU-165 cell growth in a cell viability assay.

[19] = system: Lu-65; experiment: cells; type: functional, cell-based, Homo sapiens; conditions: Homo sapiens, Lu-65;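 note: growth inhibition of Lu-65 cancer cells, read out by a cell viability assay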
Description: SANGER: Inhibition of human LU-65 cell growth in a cell viability assay.

[20] = system: MDA-MB-231; experiment: cells; type: functional, cell-based, Homo sapiens; conditions: Homo sapiens, MDA-MB-231
Description: SANGER: Inhibition of human MDA-MB-231 cell growth in a cell viability assay.

[21] = system: MEL-HO; experiment: cells; type: functional, cell-based, Homo sapiens; conditions: Homo sapiens, MEL-HO
Description: SANGER: Inhibition of human MEL-HO cell growth in a cell viability assay.

[22] = system: MKN-1; experiment: cells; type: functional, cell-based, Homo sapiens; conditions: Homo sapiens, MKN-1;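 note: growth inhibition of human MKN1 cells, read out by a cell viability measurement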
Description: SANGER: Inhibition of human MKN1 cell growth in a cell viability assay.

[23] = system: MZ1-PC; experiment: cells; type: functional, cell-based, Homo sapiens; conditions: Homo sapiens, MZ1-PC;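 note: cell viability assay measuring growth inhibition of human MZ1-PC cells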
Description: SANGER: Inhibition of human MZ1-PC cell growth in a cell viability assay.

[24] = system: NB1; experiment: cells; type: functional, cell-based, Homo sapiens; conditions: Homo sapiens, NB1;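 note: reduction of NB1 cell proliferation, read out with a viability assay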
Description: SANGER: Inhibition of human NB1 cell growth in a cell viability assay.

[25] = system: NB6; experiment: cells; type: functional, cell-based, Homo sapiens; conditions: Homo sapiens, NB6
Description: SANGER: Inhibition of human NB6 cell growth in a cell viability assay.

[26] = system: NB69; experiment: cells; type: functional, cell-based, Homo sapiens; conditions: Homo sapiens, NB69;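 note: growth inhibition of NB69 cells, determined by a cell viability assay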
Description: SANGER: Inhibition of human NB69 cell growth in a cell viability assay.

[27] = system: NCI-H1522; experiment: cells; type: functional, cell-based, Homo sapiens; conditions: Homo sapiens, NCI-H1522;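 note: growth inhibition of NCI-H1522 cells, read out with a cell viability assay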
Description: SANGER: Inhibition of human NCI-H1522 cell growth in a cell viability assay.

[28] = system: NCI-H1755; experiment: cells; type: functional, cell-based, Homo sapiens; conditions: Homo sapiens, NCI-H1755;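 note: cell viability readout used to measure growth inhibition of NCI-H1755 cells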
Description: SANGER: Inhibition of human NCI-H1755 cell growth in a cell viability assay.

[29] = system: NCI-H1882; experiment: cells; type: functional, cell-based, Homo sapiens; conditions: Homo sapiens, NCI-H1882;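 note: growth inhibition of the cell line, determined with a viability assay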
Description: SANGER: Inhibition of human NCI-H1882 cell growth in a cell viability assay.

[30] = system: NCI-H2087; experiment: cells; type: functional, cell-based, Homo sapiens; conditions: Homo sapiens, NCI-H2087;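 note: growth inhibition determined with a cell viability readout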
Description: SANGER: Inhibition of human NCI-H2087 cell growth in a cell viability assay.

[31] = system: NCI-H520; experiment: cells; type: functional, cell-based, Homo sapiens; conditions: Homo sapiens, NCI-H520;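 note: growth inhibition of NCI-H520 cells, measured by a cell viability assay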
Description: SANGER: Inhibition of human NCI-H520 cell growth in a cell viability assay.

[32] = system: SNU-16; experiment: cells; type: functional, cell-based, Homo sapiens; conditions: Homo sapiens, SNU-16;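 note: growth inhibition of human SNU-16 cells, determined with a cell viability readout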
Description: SANGER: Inhibition of human NCI-SNU-16 cell growth in a cell viability assay.

[33] = system: PFSK-1; experiment: cells; type: functional, cell-based, Homo sapiens; conditions: Homo sapiens, PFSK-1;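 note: cell viability assay measuring how strongly compounds suppress growth of human PFSK-1 cells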
Description: SANGER: Inhibition of human PFSK-1 cell growth in a cell viability assay.

[34] = system: RD; experiment: cells; type: functional, cell-based, Homo sapiens; conditions: Homo sapiens, RD
Description: SANGER: Inhibition of human RD cell growth in a cell viability assay.

[35] = system: RO82-W-1; experiment: cells; type: functional, cell-based, Homo sapiens; conditions: Homo sapiens, RO82-W-1;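 note: growth inhibition of human RO82-W-1 cells, measured with a cell viability assay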
Description: SANGER: Inhibition of human RO82-W-1 cell growth in a cell viability assay.

[36] = system: RPMI-8226; experiment: cells; type: functional, cell-based, Homo sapiens; conditions: Homo sapiens, RPMI-8226
Description: SANGER: Inhibition of human RPMI-8226 cell growth in a cell viability assay.

[37] = system: RPMI 8402; experiment: SANGER: Inhibition of human RPMI-8402 cell growth in a cell viability assay.; type: functional, cell-based; conditions: Homo sapiens, RPMI 8402; read-out: IC50
[38] = system: S-117; experiment: cells; type: functional, cell-based, Homo sapiens; conditions: Homo sapiens, S-117
Description: SANGER: Inhibition of human S-117 cell growth in a cell viability assay.

[39] = system: SF-295; experiment: cells; type: functional, cell-based, Homo sapiens; conditions: Homo sapiens, SF-295;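 note: growth inhibition of SF-295 cells, read out with a cell viability assay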
Description: SANGER: Inhibition of human SF295 cell growth in a cell viability assay.

[40] = system: SH-4; experiment: cells; type: functional, cell-based, Homo sapiens; conditions: Homo sapiens, SH-4;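 note: growth inhibition of SH-4 cells, read out with a cell viability assay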
Description: SANGER: Inhibition of human SH-4 cell growth in a cell viability assay.

[41] = system: SNU-387; experiment: cells; type: functional, cell-based, Homo sapiens; conditions: Homo sapiens, SNU-387
Description: SANGER: Inhibition of human SNU-387 cell growth in a cell viability assay.

[42] = system: SNU-C1; experiment: cells; type: functional, cell-based, Homo sapiens; conditions: Homo sapiens, SNU-C1;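 note: growth inhibition of SNU-C1 human cells, read out by a cell viability assay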
Description: SANGER: Inhibition of human SNU-C1 cell growth in a cell viability assay.

[43] = system: SW48; experiment: cells; type: functional, cell-based, Homo sapiens; conditions: Homo sapiens, SW48;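 note: growth inhibition of SW48 cells, read out with a cell viability assay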
Description: SANGER: Inhibition of human SW48 cell growth in a cell viability assay.

[44] = system: SW-620; experiment: cells; type: functional, cell-based, Homo sapiens; conditions: Homo sapiens, SW-620;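 note: growth inhibition of human SW-620 cells, measured by a cell viability assay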
Description: SANGER: Inhibition of human SW620 cell growth in a cell viability assay.

[45] = system: 647-V; experiment: cells; type: functional, cell-based, Homo sapiens; conditions: Homo sapiens, 647-V;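 note: growth inhibition of 647-V cells, read out with a cell viability assay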
Description: SANGER: Inhibition of human 647-V cell growth in a cell viability assay.

[46] = system: BHT-101; experiment: cells; type: functional, cell-based, Homo sapiens; conditions: Homo sapiens, BHT-101
Description: SANGER: Inhibition of human BHT-101 cell growth in a cell viability assay.

[47] = system: C2BBe1; experiment: cells; type: functional, cell-based, Homo sapiens; conditions: Homo sapiens, C2BBe1;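 note: growth inhibition of C2BBe1 cells, read out through a viability assay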
Description: SANGER: Inhibition of human C2BBe1 cell growth in a cell viability assay.

[48] = system: CAL-120; experiment: cells; type: functional, cell-based, Homo sapiens; conditions: Homo sapiens, CAL-120
Description: SANGER: Inhibition of human CAL-120 cell growth in a cell viability assay.

[49] = system: VM-CUB-1; experiment: cells; type: functional, cell-based, Homo sapiens; conditions: Homo sapiens, VM-CUB-1;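 note: cell viability assay measuring growth inhibition of the human VM-CUB-1 cell line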
Description: SANGER: Inhibition of human VM-CUB-1 cell growth in a cell viability assay.

C=C(c1ccc(C(=O)O)cc1)c1cc2c(cc1C)C(C)(C)CCC2(C)C [BEXAROTENE] gave an IC50 [1] greater than 8 µM, an IC50 [2] greater than 8 µM and an IC50 [3] greater than 8 µM. The IC50 [4] was greater than 8 µM, the IC50 [5] was greater than 8 µM and the IC50 [6] was greater than 8 µM. The IC50 [7] was greater than 8 µM, the IC50 [8] was greater than 8 µM and the IC50 [9] was greater than 8 µM. For the same molecule, the IC50 [10] was greater than 8 µM, the IC50 [11] was greater than 8 µM and the IC50 [12] was greater than 8 µM. It also gave an IC50 [13] greater than 8 µM, an IC50 [14] greater than 8 µM and an IC50 [15] of 5.03 µM. The IC50 [16] was greater than 8 µM, the IC50 [17] was greater than 8 µM and the IC50 [18] was greater than 8 µM. For the same molecule, the IC50 [19] was greater than 8 µM, the IC50 [20] was greater than 8 µM and the IC50 [21] was 0.531 µM. It also gave an IC50 [22] greater than 8 µM, an IC50 [23] greater than 8 µM and an IC50 [24] greater than 8 µM. It also gave an IC50 [25] greater than 8 µM, an IC50 [26] greater than 8 µM and an IC50 [27] greater than 8 µM. The IC50 [28] was greater than 8 µM, the IC50 [29] was greater than 8 µM and the IC50 [30] was greater than 8 µM. It also gave an IC50 [31] greater than 8 µM, an IC50 [32] greater than 8 µM and an IC50 [33] greater than 8 µM. The IC50 [34] was greater than 8 µM, the IC50 [35] was greater than 8 µM and the IC50 [36] was greater than 8 µM. It also gave an IC50 [37] greater than 8 µM, an IC50 [38] greater than 8 µM and an IC50 [39] of 5.17 µM. It also gave an IC50 [40] of 5.31 µM, an IC50 [41] greater than 8 µM and an IC50 [42] greater than 8 µM. It also gave an IC50 [43] greater than 8 µM, an IC50 [44] greater than 8 µM and an IC50 [45] greater than 8 µM. It also gave an IC50 [46] greater than 8 µM, an IC50 [47] greater than 8 µM and an IC50 [48] greater than 8 µM. The IC50 [49] was greater than 8 µM.
With Oc1ccc2ccccc2c1SSc1c(O)ccc2ccccc12 the IC50 [1] was greater than 32 µM, the IC50 [2] was greater than 32 µM and the IC50 [3] was greater than 32 µM. For the same molecule, the IC50 [4] was greater than 32 µM, the IC50 [5] was greater than 32 µM and the IC50 [6] was greater than 32 µM. For the same molecule, the IC50 [7] was greater than 32 µM, the IC50 [8] was 11.4 µM and the IC50 [9] was 7.53 µM. The IC50 [10] was greater than 32 µM, the IC50 [11] was greater than 32 µM and the IC50 [12] was 8.85 µM. For the same molecule, the IC50 [13] was 4.5 µM, the IC50 [14] was greater than 32 µM and the IC50 [15] was greater than 32 µM. The IC50 [16] was greater than 32 µM, the IC50 [17] was greater than 32 µM and the IC50 [18] was greater than 32 µM. It also gave an IC50 [19] greater than 32 µM, an IC50 [20] greater than 32 µM and an IC50 [21] greater than 32 µM. For the same molecule, the IC50 [22] was greater than 32 µM, the IC50 [23] was greater than 32 µM and the IC50 [24] was 21.9 µM. The IC50 [25] was 3.84 µM, the IC50 [26] was 6.76 µM and the IC50 [27] was greater than 32 µM. The IC50 [28] was greater than 32 µM, the IC50 [29] was greater than 32 µM and the IC50 [30] was greater than 32 µM. The IC50 [31] was greater than 32 µM, the IC50 [32] was greater than 32 µM and the IC50 [33] was greater than 32 µM. The IC50 [34] was greater than 32 µM, the IC50 [35] was greater than 32 µM and the IC50 [36] was greater than 32 µM. For the same molecule, the IC50 [37] was 5.77 µM, the IC50 [38] was 31.4 µM and the IC50 [39] was greater than 32 µM. For the same molecule, the IC50 [40] was greater than 32 µM, the IC50 [41] was greater than 32 µM and the IC50 [42] was greater than 32 µM. It also gave an IC50 [43] of 21.9 µM, an IC50 [44] greater than 32 µM and an IC50 [45] greater than 32 µM. For the same molecule, the IC50 [46] was greater than 32 µM, the IC50 [47] was greater than 32 µM and the IC50 [48] was greater than 32 µM. For the same molecule, the IC50 [49] was greater than 32 µM.
With N#Cc1c(O)c2c(-c3ccc(-c4ccccc4O)cc3)csc2[nH]c1=O the IC50 [1] was 0.328 µM, the IC50 [2] was greater than 1.02 µM and the IC50 [3] was greater than 1.02 µM. It also gave an IC50 [4] greater than 1.02 µM, an IC50 [5] greater than 1.02 µM and an IC50 [6] greater than 1.02 µM. The IC50 [7] was greater than 1.02 µM, the IC50 [8] was greater than 1.02 µM and the IC50 [9] was greater than 1.02 µM. The IC50 [10] was 0.342 µM, the IC50 [11] was greater than 1.02 µM and the IC50 [12] was 0.0974 µM. For the same molecule, the IC50 [13] was greater than 1.02 µM, the IC50 [14] was greater than 1.02 µM and the IC50 [15] was greater than 1.02 µM. For the same molecule, the IC50 [16] was 0.308 µM, the IC50 [17] was greater than 1.02 µM and the IC50 [18] was greater than 1.02 µM. It also gave an IC50 [19] of 0.52 µM, an IC50 [20] greater than 1.02 µM and an IC50 [21] greater than 1.02 µM. For the same molecule, the IC50 [22] was greater than 1.02 µM, the IC50 [23] was greater than 1.02 µM and the IC50 [24] was greater than 1.02 µM. The IC50 [25] was greater than 1.02 µM, the IC50 [26] was 0.686 µM and the IC50 [27] was 0.194 µM. For the same molecule, the IC50 [28] was greater than 1.02 µM, the IC50 [29] was 0.409 µM and the IC50 [30] was 0.214 µM. It also gave an IC50 [31] greater than 1.02 µM, an IC50 [32] greater than 1.02 µM and an IC50 [33] greater than 1.02 µM. For the same molecule, the IC50 [34] was greater than 1.02 µM, the IC50 [35] was greater than 1.02 µM and the IC50 [36] was 0.246 µM. It also gave an IC50 [37] of 0.442 µM, an IC50 [38] greater than 1.02 µM and an IC50 [39] greater than 1.02 µM. It also gave an IC50 [40] greater than 1.02 µM, an IC50 [41] greater than 1.02 µM and an IC50 [42] greater than 1.02 µM. It also gave an IC50 [43] greater than 1.02 µM, an IC50 [44] greater than 1.02 µM and an IC50 [45] greater than 1.02 µM. It also gave an IC50 [46] greater than 1.02 µM, an IC50 [47] greater than 1.02 µM and an IC50 [48] greater than 1.02 µM. For the same molecule, the IC50 [49] was greater than 1.02 µM.
